According to ChEMBL document CHEMBL5154856, “Targeting the tumor microenvironment by an enzyme-responsive prodrug of tubulin destabilizer for triple-negative breast cancer therapy with high safety” (Eur J Med Chem, 2022):
Calls of active or inactive are those of the source. The rule behind the calls is not given here.

Key:
[1] = Metabolic stability in rat liver microsomes assessed as intrinsic clearance in liver at 10 mM measured up to 60 mins in presence of NADPH by LC-MS/MS analysis; assay type: ADME, Microsome; conditions: read-out: CLH
[2] = Toxicity in nude mouse assessed as effect on red blood cell count at 40 mg/kg, iv administered qd for 3 days (reference value: 0.21 10^12/L); assay type: organism-based; conditions: in vivo, 72 h, time 3 day
SK-OV-3 [3] = test: Antiproliferative activity against human SK-OV-3 cells assessed as inhibition of cell growth incubated for 48 hrs in presence of beta-glucuronidase by MTT assay; assay type: functional, cell-based; conditions: SK-OV-3, 48 h
[4] = Toxicity in nude mouse assessed as effect on alanine aminotransferase level in serum at 40 mg/kg, iv administered qd for 3 days (reference value: 308 U/L); assay type: organism-based; conditions: in vivo, 72 h, time 3 day
[5] = Toxicity in nude mouse assessed as effect on gamma-glutamyl transpeptidase level in serum at 40 mg/kg, iv administered qd for 3 days (Rvb < 2 U/L); assay type: organism-based; conditions: in vivo, 72 h, time 3 day
MDA-MB-231 [6] = test: Antitumour activity against human MDA-MB-231 cells xenografted in nude mouse assessed as tumor growth inhibition at 40 mg/kg, iv administered every 2 days for 14 days; assay type: functional; conditions: MDA-MB-231, 336 h, time 14 day, read-out: TGI
[7] = Toxicity in nude mouse xenografted with human MDA-MB-231 cells assessed as pathological changes in kidney at 20 to 40 mg/kg, iv administered every 2 days for 14 days by H and E staining based assay; assay type: organism-based; conditions: in vivo, 336 h, dose 20-40 mg/kg, time 14 day
[8] = Toxicity in nude mouse assessed as effect on basophil level at 40 mg/kg, iv administered qd for 3 days (reference value: 11.70 %); assay type: organism-based; conditions: in vivo, 72 h, time 3 day
HeLa [9] = test: Antiproliferative activity against human HeLa cells assessed as inhibition of cell growth incubated for 48 hrs in presence of beta-glucuronidase by MTT assay; assay type: functional, cell-based
[10] = Toxicity in nude mouse assessed as effect on mean corpuscular hemoglobin concentration at 40 mg/kg, iv administered qd for 3 days (reference value: 473 g/L); assay type: organism-based; conditions: in vivo, 72 h, time 3 day
[11] = Cardiotoxicity in nude mouse assessed as abnormal spikes at 20 to 40 mg/kg, iv administered once daily for 3 days by ECG analysis; assay type: toxicity, organism-based; conditions: in vivo, 72 h, dose 20-40 mg/kg, time 3 day
HeLa [12] = test: Antiproliferative activity against human HeLa cells assessed as inhibition of cell growth incubated for 48 hrs in absence of beta-glucuronidase by MTT assay; assay type: functional, cell-based
MDA-MB-231 [13] = test: Antitumour activity against human MDA-MB-231 cells xenografted in nude mouse assessed as tumor growth inhibition at 20 mg/kg,iv administered every 2 days for 14 days; assay type: functional; conditions: MDA-MB-231, 336 h, time 14 day, read-out: TGI
[14] = Toxicity in nude mouse assessed as effect on white blood cell count at 40 mg/kg, iv administered qd for 3 days (reference value: 0.02 10^9/L); assay type: organism-based; conditions: in vivo, 72 h, time 3 day
[15] = Cardiotoxicity in nude mouse assessed as prolonged QT intervals at 20 to 40 mg/kg, iv administered once daily for 3 days by ECG analysis; assay type: toxicity, organism-based; conditions: in vivo, 72 h, dose 20-40 mg/kg, time 3 day
[16] = Toxicity in nude mouse assessed as effect on lymphocyte level at 40 mg/kg, iv administered qd for 3 days (reference value: 60.90 %); assay type: organism-based; conditions: in vivo, 72 h, time 3 day
[17] = Toxicity in nude mouse assessed as effect on eosinophil level at 40 mg/kg, iv administered qd for 3 days (reference value: 6 %); assay type: organism-based; conditions: in vivo, 72 h, time 3 day
[18] = Toxicity in nude mouse assessed as effect on mean corpuscular hemoglobin level at 40 mg/kg, iv administered qd for 3 days (reference value: 22.3 pg); assay type: organism-based; conditions: in vivo, 72 h, time 3 day
[19] = Acute toxicity in BALB/c mouse assessed as lethal dose administered intravenously as single dose and measured after 14 days; conditions: in vivo, route iv, time 14 day
MCF7 [20] = test: Antiproliferative activity against human MCF7 cells assessed as inhibition of cell growth incubated for 48 hrs in absence of beta-glucuronidase by MTT assay; assay type: functional, cell-based; conditions: MCF7, 48 h
[21] = Stability of compound in phosphate buffer at pH 7.4 assessed as Escherichia coli beta-glucuronidase mediated compound cleavage at 1.2 mg measured after 30 mins by HPLC analysis; assay type: ADME; conditions: pH 7.4, 0.5 h
[22] = Toxicity in nude mouse assessed as ratio of effect on albumin level to effect on globulin level in serum at 40 mg/kg, iv administered qd for 3 days (reference value: 1.94); assay type: organism-based; conditions: in vivo, 72 h, time 3 day
MDA-MB-231 [23] = test: Antitumour activity against human MDA-MB-231 cells xenografted in nude mouse assessed as reduction in tumor volume at 40 mg/kg, iv administered every 2 days for 14 days; assay type: functional, organism-based; conditions: time 14.0 day
MDA-MB-231 [24] = test: Antiproliferative activity against human MDA-MB-231 cells assessed as inhibition of cell growth incubated for 48 hrs in absence of beta-glucuronidase by MTT assay; assay type: functional, cell-based; conditions: MDA-MB-231, 48 h
[25] = Toxicity in nude mouse xenografted with human MDA-MB-231 cells assessed as effect on body weight at 20 to 40 mg/kg, iv administered every 2 days for 14 days; assay type: organism-based; conditions: in vivo, 336 h, dose 20-40 mg/kg, time 14 day
[26] = Toxicity in nude mouse assessed as effect on globulin level in serum at 40 mg/kg, iv administered qd for 3 days (reference value: 16.1 g/L); assay type: organism-based; conditions: in vivo, 72 h, time 3 day
[27] = Toxicity in nude mouse assessed as effect on total bilirubin level in serum at 40 mg/kg, iv administered qd for 3 days (reference value: 3.3 micromol/L); assay type: organism-based; conditions: in vivo, 72 h, time 3 day
[28] = Toxicity in nude mouse assessed as effect on platelet distribution width at 40 mg/kg, iv administered qd for 3 days (reference value: 20.2); assay type: organism-based; conditions: in vivo, 72 h, time 3 day
[29] = Metabolic stability in rat liver microsomes assessed as intrinsic clearance in microsomes at 10 mM measured up to 60 mins in presence of NADPH by LC-MS/MS analysis; assay type: ADME, Microsome; conditions: read-out: CLH
[30] = Metabolic stability in rat liver microsomes assessed as half life at 10 mM measured up to 60 mins in presence of NADPH by LC-MS/MS analysis; assay type: ADME, Microsome
[31] = Toxicity in nude mouse assessed as effect on alkaline phosphatase level in serum at 40 mg/kg, iv administered qd for 3 days (reference value: 66 U/L); assay type: organism-based; conditions: in vivo, 72 h, time 3 day
[32] = Toxicity in nude mouse assessed as effect on aspartate aminotransferase level in serum at 40 mg/kg, iv administered qd for 3 days (reference value: 424 U/L); assay type: organism-based; conditions: in vivo, 72 h, time 3 day
MDA-MB-231 [33] = test: Antiproliferative activity against human MDA-MB-231 cells assessed as inhibition of cell growth incubated for 48 hrs in presence of beta-glucuronidase by MTT assay; assay type: functional, cell-based; conditions: MDA-MB-231, 48 h
SK-OV-3 [34] = test: Antiproliferative activity against human SK-OV-3 cells assessed as inhibition of cell growth incubated for 48 hrs in absence of beta-glucuronidase by MTT assay; assay type: functional, cell-based; conditions: SK-OV-3, 48 h
[35] = Toxicity in nude mouse assessed as effect on neutrophil level at 40 mg/kg, iv administered qd for 3 days (reference value: 7.40 %); assay type: organism-based; conditions: in vivo, 72 h, time 3 day
MCF7 [36] = test: Antiproliferative activity against human MCF7 cells assessed as inhibition of cell growth incubated for 48 hrs in presence of beta-glucuronidase by MTT assay; assay type: functional, cell-based; conditions: MCF7, 48 h
[37] = Acute toxicity in BALB/c mouse assessed as animal survival at […], iv administered as single dose measured after 14 days; assay type: organism-based; conditions: in vivo, time 14 day

COc1ccc([C@H]2[C@H](CO)C(=O)N2c2cc(OC)c(OC)c(OC)c2)cc1OCc1ccc(O[C@@H]2O[C@H](C(=O)O)[C@@H](O)[C@H](O)[C@H]2O)cc1
CLint scaled [1]: < 38 mL/min/kg | Activity [2]: 0.31 10^12/L | IC50 (SK-OV-3 [3]): 14.1 nM | Activity [4]: 316 U/L | Activity [5]: < 2 U/L | inhibition in vivo at 40 mg/kg (MDA-MB-231 [6]): 63% | Activity [7]: Non-Toxic | Activity [8]: 6.8% | IC50 (HeLa [9]): 8.9 nM | Activity [10]: 512 g/L | Activity [11]: Non-Toxic | IC50 (HeLa [12]): > 50000 nM | inhibition in vivo at 20 mg/kg (MDA-MB-231 [13]): 50% | Activity [14]: 0.12 10^9/L | Activity [15]: Non-Toxic | Activity [16]: 57.2% | Activity [17]: 6.2% | Activity [18]: 22.3 pg | LD50 at 336 h [19]: > 500 mg/kg | IC50 (MCF7 [20]): > 50000 nM | Stability [21]: Unstable | Ratio [22]: 1.84 | Activity (MDA-MB-231 [23]): Active | IC50 (MDA-MB-231 [24]): > 50000 nM | Activity [25]: Non-Toxic | Activity [26]: 16 g/L | Activity [27]: 3.9 µmol/L | Activity [28]: 17 | microsomal CLint [29]: < 9.6 µL/min/mg | half-life [30]: > 2.42 h | Activity [31]: 56 U/L | Activity [32]: 503 U/L | IC50 (MDA-MB-231 [33]): 11.7 nM | IC50 (SK-OV-3 [34]): > 50000 nM | Activity [35]: 7.9% | IC50 (MCF7 [36]): 15.7 nM | survival at 336 h [37]: 75%
